Measurements published in PMC11125126, “Synthesis, Characterisation, and In Vitro Evaluation of Biocompatibility, Antibacterial and Antitumor Activity of Imidazolium Ionic Liquids” (Pharmaceutics, 2024).
Where two headings read alike, the source gives them in different places.

Tests used:
[1] = tested on: Escherichia coli; assay: MIC/MBC by broth dilution, pure ILs; format: cell-based; details: 24 h
Text: (§1) Within the Di3A (Dipartimento di Agricoltura, Alimentazione e Ambiente, University of Catania, Italy) microbial collection, two Gram-negative strains (Escherichia coli and Pseudomonas fluorescens) and one Gram-positive strain (Listeria monocytogenes) were studied in order to define the potential efficacy of ionic liquids in relation to the different structure of the bacterial cell wall.
(§2) For the pure ILs, the minimal inhibitory concentration (MIC) and minimal bactericidal concentration (MBC) were determined in Nutrient Broth (NB, Oxoid, Basingstoke, UK) medium by broth dilution method, according to the Clinical and Laboratory Standards Institute (CLSI).
(§3) All the bacterial strains were individually grown for 24 h at 35 or 27 °C for P. fluorescens, with shaking. After the incubation period, the cells were collected by centrifugation and re-suspended in sterile NB to obtain a stock culture of 10^9 CFU/mL.
(§4) Tubes containing 5 mL of NB with decreasing concentrations of ILs (1000, 500, 250, 125, 50, 25, 12.5, 5 and 0 µg/mL) were inoculated with each bacterial stock culture at a final concentration of 10^6 CFU/mL.
(§5) Tubes were incubated at 35 or 27 °C in an orbital shaker and evaluated for the viable count of E. coli, P. fluorescens, and L. monocytogenes after 24 h by spread-plating 100 µL of each suspension on Nutrient Agar (NA, Oxoid, Basingstoke, UK) incubated for 24–48 h at 35 or 27 °C.
(§6) In this study, MIC and MBC are expressed in both µg/mL and µM to make the comparison with the literature data easy. Each experiment was performed in triplicate.

[2] = tested on: HDF cells; assay: Direct cytotoxicity test of IL powders, Alamar blue assay; format: cell-based, human; details: 24 h of incubation
Description: (§7) Cytotoxicity studies on IL powders were carried out using human dermal fibroblast (HDF) cells (Sigma-Aldrich) and a human breast cancer cell line (MCF7). In addition, ILs loaded in PVC polymer substrates were tested for their cytocompatibility and adhesion properties on the HDF. HDF cells were cultured in 75 cm^2 cell culture flask in Dulbecco’s Modified Eagle’s Medium (DMEM) supplemented with 20% Foetal Bovine Serum (FBS), 1% non-essential amino acid (NEAA), antibiotic solution (streptomycin 100 µg/mL and penicillin 100 U/mL, Sigma Aldrich) and 2 mM L-glutamine. MCF7 cells were grown in DMEM with 10% FBS and the same antibiotics as mentioned above. The cells were maintained in a culture at 37 °C, with 5% CO2 and 95% humidity to achieve a confluent layer. Control cells were cultured in a complete medium without any compounds in tissue culture plates. Before biological testing, the samples were sterilised using a UV light for 2 h.
(§8) A direct cytotoxicity test was used to assess the in vitro cytotoxicity of IL powders. IL powders with different alkyl chains were dissolved in DMEM media to obtain solutions at various concentrations (0.5–1–5 and 10 µg/mL) to determine the best formulation.
(§9) After 24 h of incubation of IL solutions (200 µL) with seeded cells under specific environmental conditions (T = 37 °C, HR = 95%, CO2 = 5%), cell viability was tested using the Alamar blue assay (AbD Serotec, Milan, Italy) following the manufacturer’s instructions.
(§10) In summary, each well received a 200 µL aliquot of Alamar Blue^TM diluted 1:10 in phenol red-free medium and was incubated for 4 h at 37 °C, 5% CO2. Following this, 100 µL of the solution was transferred to a 96-well plate for colorimetric analysis. Wells with no cells were included to account for any background interference from the redox indicator. Optical density was immediately measured using a spectrophotometer (Victor X3, Perkin Elmer, Waltham, MA, USA) at 560 and 595 nm wavelengths. The results were presented as a percentage of cell viability compared to that of the control (cells grown on tissue culture plates).
(§11) Here, the antitumor activity and cytotoxicity of the synthetised imidazolium-based ionic liquids have been determined for breast cancer cells (MCF-7) and healthy human fibroblast (HDF) cells. […] Table 5 reports the IC50 values in µg/mL and µM to make their comparison with the literature data easy.

[3] = tested on: MCF7 cancer cells; assay: as above; format: cell-based, human; details: 24 h of incubation
Description: as §7, §8, §9, §10, §11

[4] = Thermogravimetric analysis (TGA), thermal stability; format: physicochemical; details: neat ILs; single-step degradation; 10 °C/min, nitrogen
Description: Thermal stability and kinetic parameters of the synthesised ILs were investigated using the TA instruments Q500 thermogravimetric analyser (Milan, Italy). A certain amount of sample (4–5 mg) was placed in a platinum pan and heated at 10 °C min^−1 from 40 to 600 °C under a flow of nitrogen (60 mL/min).
Thermogravimetric analyses were performed to evaluate the thermal stability of ILs and PVC/IL blends. Before testing, the samples were subjected to drying cycles in a vacuum stove for 24 h at 50–60 °C, according to the thermal features of ILs, mainly considering their melting points. The ILs C9mimBF4, C10mimBF4, C9mimDMSIP, and C10mimDMSIP, which are liquid at RT, were left to dry at 30 °C for 4–5 h. […] Considering this, the 40–600 °C degradation temperature range was adopted for the subsequent TGA analyses. […] Furthermore, platinum pans and nitrogen as purge gas were used, and the temperature at which 5% weight loss occurred was defined as Tonset, aiming to avoid the decomposition differences due to pan and gas types, as well as the uncertainty from the manual determination of the Tonset tangent point, respectively. Many features can influence the thermal stability of ILs, mainly the coordinating nature of the anion. Indeed, the highly coordinating halide anions (Cl, Br) display a thermal stability lower than that of poor coordinating anions (PF6). The type of cation core influences the thermal stability of ILs, with a decreasing temperature resistance in the following order: pyrrolidinium, imidazolium, pyridinium, and non-cyclic tetra-alkyl ammonium. The increasing alkyl chain length of the imidazolium cation and branching of the alkyl substituents induce a reduction in thermal stability. Furthermore, a decrease in thermal stability is determined by the presence of alkoxylated side chains in methylimidazolium, piperidinium, and pyrrolidinium cations.
As the industrial production of end products usually involves processing methodologies during which undesirable degradation processes could affect materials’ performance, the thermal stability of neat PVC and PVC/IL film blends was analysed. As detailed for TGA analyses of pure ILs, the stability of the PVC/IL blends was determined at heating runs of 10 °C/min from 40 to 600 °C under a nitrogen atmosphere using a platinum pan. These things considered, the temperature at 5% weight loss was considered as Tonset.

[5] = tested on: Listeria monocytogenes; assay: MIC/MBC by broth dilution, pure ILs; format: cell-based; details: 24 h
Text: as §1, §2, §3, §4, §5, §6

[6] = tested on: Pseudomonas fluorescens; assay: MIC/MBC by broth dilution, pure ILs; format: cell-based; details: 24 h, NI = no inhibition at IL maximum concentration used (1000 µM), read-out: MIC
Text: as §1, §2
All the bacterial strains were individually grown for 24 h at 35 or 27 °C for P. fluorescens, with shaking. After the incubation period, the cells were collected by centrifugation and re-suspended in sterile NB to obtain a stock culture of 10^9 CFU/mL. […]
as §5, §6

[7] = NI = no inhibition at IL maximum concentration used (1000 µM), read-out: MIC

Row | Compound | MIC ([1]; 10^6 CFU/mL) | MIC [1, 7] | IC50 ([2]; n = 3) | IC50 HDF ([2]; n = 3, mean ± SD) | IC50 MCF7 ([3]; n = 3) | IC50 ([3]; n = 3, mean ± SD) | Td, maximum degradation temperature [4] | MIC ([1]; 10^6 CFU/mL, read-out: MIC) | MIC ([5]; 10^6 CFU/mL, read-out: MIC) | MIC [5, 7] | MIC [6] | IC50 ([2]; Homo sapiens, n = 3) | IC50 ([2]; Homo sapiens, n = 3, mean ± SD) | IC50 ([3]; Homo sapiens, n = 3) | IC50 ([3]; Homo sapiens, n = 3, mean ± SD) | MIC ([5]; 10^6 CFU/mL)
1 | CCCCCCCCC[n+]1ccn(C)c1.COC(=O)c1cc(C(=O)OC)cc(S(=O)(=O)[O-])c1 [C9mimDMSIP] | 482.59 µg/mL | 1000 µM | 10.3 µM | 4.96 ± 0.05 µg/mL | > 24.13 µg/mL | > 50 µM | 389.7 °C | – | – | – | – | – | – | – | – | –
2 | CCCCCCCCCCCCCCCCCCCC[n+]1ccn(C)c1.F[B-](F)(F)F [C20mimBF4] | – | > 1000 µM | – | – | – | – | 427.9 °C | > 450 µg/mL | > 450 µg/mL | > 1000 µM | > 1000 µM | 5.99 µM | 2.7 ± 0.19 µg/mL | 3.47 µg/mL | 7.71 µM | –
3 | CCCCCCCCCCCCCCCCCCCCn1cc[n+](C)c1.COC(=O)c1cc(C(=O)OC)cc(S(=O)(=O)[O-])c1 [C20mimDMSIP, 1-eicosyl-3-methylimidazolium 1,3-dimethyl-5-sulfoisophthalate] | > 636.88 µg/mL | – | 8.01 µM | 5.10 ± 0.02 µg/mL | 4.71 µg/mL | 7.39 µM | 412.2 °C | – | – | – | – | – | – | – | – | > 636.88 µg/mL
